Assay results taken from paper PMC5814047, “Peptidic inhibitors of insulin-degrading enzyme with potential for dermatological applications discovered via phage display” (PLoS ONE, 2018).
Several values for one entry are separate records, joined by “and”; a condition that tells them apart may be missing. Identical values can stand only once. Like-named read-outs stand apart in the source and are kept apart here. Bridge positions count the residues as written; N and C are the ends. Ends that are not written are not given here. Peptide text beside a SMILES is read from it.

Target: T1, IDE (Homo sapiens, UniProt P14735)
T1 construct: made in house; host or cells: bacteria
T1 sequence (P14735 1-1019): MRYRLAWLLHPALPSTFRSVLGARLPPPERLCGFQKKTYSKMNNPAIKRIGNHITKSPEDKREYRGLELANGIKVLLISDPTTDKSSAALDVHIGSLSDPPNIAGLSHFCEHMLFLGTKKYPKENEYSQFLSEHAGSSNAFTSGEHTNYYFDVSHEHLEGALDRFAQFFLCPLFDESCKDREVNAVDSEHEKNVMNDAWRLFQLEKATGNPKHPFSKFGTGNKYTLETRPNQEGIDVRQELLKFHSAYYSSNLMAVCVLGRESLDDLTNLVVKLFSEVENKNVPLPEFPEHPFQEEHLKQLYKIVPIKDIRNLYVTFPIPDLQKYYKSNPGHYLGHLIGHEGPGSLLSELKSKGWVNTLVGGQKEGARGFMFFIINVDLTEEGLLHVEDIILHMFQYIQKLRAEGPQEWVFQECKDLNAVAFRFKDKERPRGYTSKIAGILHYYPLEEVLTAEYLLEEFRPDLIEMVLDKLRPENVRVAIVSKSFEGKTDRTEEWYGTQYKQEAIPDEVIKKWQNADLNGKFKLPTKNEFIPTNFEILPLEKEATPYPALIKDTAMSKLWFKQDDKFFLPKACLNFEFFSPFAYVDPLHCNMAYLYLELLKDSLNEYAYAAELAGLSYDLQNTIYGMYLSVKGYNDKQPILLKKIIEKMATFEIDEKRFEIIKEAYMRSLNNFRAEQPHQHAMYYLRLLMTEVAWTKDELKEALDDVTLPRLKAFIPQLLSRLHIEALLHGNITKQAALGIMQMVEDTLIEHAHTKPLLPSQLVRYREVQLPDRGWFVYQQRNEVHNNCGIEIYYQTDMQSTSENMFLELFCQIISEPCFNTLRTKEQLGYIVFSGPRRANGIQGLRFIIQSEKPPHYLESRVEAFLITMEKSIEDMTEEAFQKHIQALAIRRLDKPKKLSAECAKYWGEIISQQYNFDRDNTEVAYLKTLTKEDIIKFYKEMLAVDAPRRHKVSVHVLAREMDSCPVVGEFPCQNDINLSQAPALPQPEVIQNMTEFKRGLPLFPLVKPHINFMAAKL
Assay: biochemical
Conditions: for IC50: FRET1; for IC50 <500 uM?: initial test at 500 uM
Procedure, shortened: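 Recombinant human IDE (1 nM, bacterially expressed) degraded FRET1 substrate (5 μM), fluoresceinated biotinylated amyloid β (500 nM) or human insulin (50 nM) in PBS with 0.05% BSA. Peptides tested included N-acetylated and C-amidated variants.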

[1] = Cheng-Prusoff, KM 10 uM, substrate concentration 5 uM, read-out: Ki values, Mean
[2] = dose-response, individual runs, read-out: Percent Activity (normalized source data)
[3] = dose-response, read-out: IC50s, Mean
[4] = initial test, percent of initial velocity relative to DMSO-only controls, individual replicates, read-out: Percent activity at 500 uM, Replicate 1-4
[5] = judged as IC50 <100 uM?, individual replicates, read-out: Percent activity at 500 uM, Replicate 1-4
[6] = substrate FRET1 5 μM, Ki from IC50 with the Cheng-Prusoff equation, read-out: Ki FRET1
[7] = dose-response, individual runs, read-out: IC50s, Run 1-6
[8] = dose-response, 500 uM, individual runs, read-out: Percent Activity (normalized source data)

| Molecule | Ki [1] [µM] | remaining activity at 31.25 µM [2] [%] | IC50 [3] [µM] | IC50 <500 uM? | remaining activity at 500 µM [4] [%] | remaining activity at 500 µM [5] [%] | Ki [6] [µM] | remaining activity at 0.12207 µM (dose-response, 0.12207 uM, individual runs, read-out: Percent Activity (normalized source data)) [%] | remaining activity at 0.488281 µM [2] [%] | remaining activity at 1.95312 µM (dose-response, 1.95312 uM, individual runs, read-out: Percent Activity (normalized source data)) [%] | remaining activity at 7.8125 µM (dose-response, 7.8125 uM, individual runs, read-out: Percent Activity (normalized source data)) [%] | remaining activity at 125 µM (dose-response, 125 uM, individual runs, read-out: Percent Activity (normalized source data)) [%] | remaining activity at 500 µM (initial test, percent of initial velocity relative to DMSO-only controls, N 4, read-out: Percent activity at 500 uM, Mean) [%] | remaining activity at 500 µM (judged as IC50 <100 uM?, N 4, read-out: Percent activity at 500 uM, Mean) [%] | IC50 [7] | remaining activity at 500 µM [8] [%] |
| --- | --- | --- | --- | --- | --- | --- | --- | --- | --- | --- | --- | --- | --- | --- | --- | --- |
| WSPISGKFFQRF [P12-4] | 3.93 | 46.9 | 5.89 | YES | 8.6 | 15.5 | 3.9 ± 0.5 | – | – | – | – | – | – | – | – | – |
| CC(C)C[C@H](NC(=O)[C@H](CO)NC(=O)[C@@H](N)CCC(N)=O)C(=O)N1CCC[C@H]1C(=O)N[C@@H](Cc1c[nH]c2ccccc12)C(=O)N[C@H]1CSSC[C@@H](C(=O)N[C@H](C(=O)N[C@H](C(=O)O)[C@@H](C)O)C(C)C)NC(=O)[C@H](Cc2c[nH]cn2)NC(=O)[C@@H]2CCCN2C(=O)[C@H](Cc2ccc(O)cc2)NC1=O [P12-3] (H-QSLPWCYPHCVT-OH; disulfide 6-10 (inferred)) | – | 34.6 | – | YES | – | – | – | 91.1 | 84.5 | 84.4 | 65.6 | 11 | 2 | 13.9 | – | – |
| QSLPWCYP-NH2 [P12-3B] | 39.4 | – | 59.2 | YES | 13.7 | 27.1 | 39 ± 20 | – | – | – | – | – | – | – | 25.6 µM and 32.5 µM | – |
| VHWDFRQWWQPS-NH2 [P12-1A] | 5.3 | – | 7.95 | YES | – | – | 5 ± 0.3 | – | 88.4 | – | – | – | – | – | – | 1.11 |
| VHWDFRQWWQPS [P12-1] | 7.71 | – | 11.6 | YES | – | 17.6 | 7.7 ± 0.7 | – | – | – | – | – | – | – | 11.6 µM and 9.84 µM and 13.2 µM | 0.0455 |
